Test results as given in patent US20220178927A1, “BIOMARKERS FOR SELINEXOR” (Karyopharm Therapeutics Inc., priority 2019, published 2022).

Assays:
[1] = tested on: bortezomib-refractory disease; conditions: cited from earlier work
[2] = tested on: penta-exposed, triple-class refractory MM; assay: pivotal STORM Part 2 study; format: in vivo
From the text: Eligible patients had measurable MM by International Myeloma Working Group (IMWG) criteria (See, Durie B G, Harousseau J L, Miguel J S, et al. International uniform response criteria for multiple myeloma. Leukemia 2006;20:1467-73. Rajkumar S V, Harousseau J L, Durie B, et al. Consensus recommendations for the uniform reporting of clinical trials: report of the International Myeloma Workshop Consensus Panel. Blood 2011;117:4691-5); prior treatment with bortezomib, carfilzomib, lenalidomide, pomalidomide, daratumumab, glucocorticoids, and an alkylating agent; and had disease refractory to at least 1 IMiD (lenalidomide and pomalidomide), 1 PI (bortezomib or carfilzomib), daratumumab, glucocorticoids and to their last regimen. Refractory disease was defined as progression during or within 60 days after completion of therapy, or <25% response to therapy.19, 20 Eastern Cooperative Oncology Group performance status of 0-2, adequate hepatic function, renal function, and hematopoietic function were required. Systemic light chain amyloidosis, active central nervous system involvement, grade≥3 peripheral or grade≥2 painful neuropathy were exclusion criteria.
Oral selinexor 80 mg in combination with dexamethasone 20 mg was administered on days 1 and 3, weekly, in 4-week cycles until disease progression, death or discontinuation. A dose modification protocol was used for adverse event (AE) management. All patients were required to receive ondansetron 8 mg (or equivalent) prior to the first dose of study drug and 2-3 times daily as needed. Other antiemetics (olanzapine, NK-1R antagonists) were permitted for patients intolerant to or with persistent nausea. Supportive measures were provided at the discretion of the investigator and may have included intravenous fluids, hematopoietic growth factors, transfusions, and/or appetite stimulants (olanzapine, megesterol acetate).
The primary endpoint was Overall Response Rate (ORR) adjudicated by the appointed Independent Review Committee (IRC). Secondary endpoints included duration of response (DOR), clinical benefit rate (CBR), progression-free survival (PFS) and OS (Overall Survival). Disease-specific assessments were conducted at baseline, day 1 of each treatment cycle, and at the time of disease progression or suspected response. High-risk cytogenetics included del(17p), t(4;14), t(14;16), and gain(1q) chromosomal abnormalities by fluorescent in situ hybridization (FISH). Quality of life was assessed using the Functional Assessment of Cancer Therapy-Multiple Myeloma (FACT-MM) patient-reported outcome questionnaire. Safety and tolerability were assessed through history, physical exam, laboratory assessments and 12-lead electrocardiogram. Adverse events (AEs) were graded according to the NCI CTCAE v4.03.
The sample size was based on assumptions for penta-exposed, triple-class-refractory MM using a minimal threshold for ORR of 10%. For the primary efficacy analysis, a sample size of 122 patients allowed for a one-sided test at α=0.025 to detect an ORR of ≥20% against the threshold ORR of 10% with 90% power. The modified intention-to-treat (mITT) population was used for the primary efficacy analysis, comprised of all enrolled patients who met all eligibility criteria or received a waiver from the Sponsor to enroll in the trial and received at least 1 dose of selinexor plus dexamethasone. The safety population included all patients who received at least 1 dose of study drug. The primary analysis used a 2-sided, exact 95% confidence interval, calculated for the ORR among the mITT population, with statistical significance declared if the lower bound of this interval was >10%. […] Summary statistics for continuous variables minimally included: n (number), mean, standard deviation (SD), minimum, median, and maximum. For categorical variables, frequencies and percentages are presented. For time-to-event variables, the Kaplan-Meier method was used for descriptive summaries.

[3] = tested on: MM refractory to either 4 or 5 drugs (quad- and penta-refractory); assay: phase 2 STORM study Part 1; format: in vivo, human; conditions: Selinexor 80 mg in combination with dexamethasone 20 mg, 2 dosing schedules; quad- and penta-refractory MM patients
Description: Selinexor 80 mg in combination with dexamethasone 20 mg administered using 2 dosing schedules was studied in patients with MM refractory to either 4 or 5 drugs (quad- and penta-refractory) in Part 1 of the phase 2 STORM (Selinexor Treatment Of Refractory Myeloma) study. Median overall response rate (ORR) was 21% in this heterogeneous population. Based on these findings, the activity of selinexor 80 mg administered twice-weekly was examined in a more uniform population in the pivotal STORM Part 2 study.

quad-refractory myeloma = conditions: pivotal phase 2 study; cited from earlier work
refractory MM = conditions: expansion cohort (n=15) of the phase 1 monotherapy study; cited from earlier work
[4] = selinexor 80 mg + dexamethasone 20 mg twice weekly
[5] = selinexor 80 mg + dexamethasone 20 mg twice weekly, % of mITT patients
[6] = selinexor 80 mg + dexamethasone 20 mg twice weekly, % of patients

CC(C)C[C@H](NC(=O)[C@H](CCc1ccccc1)NC(=O)CN1CCOCC1)C(=O)N[C@@H](Cc1ccccc1)C(=O)N[C@@H](CC(C)C)C(=O)[C@@]1(C)CO1 [carfilzomib]
ORR [1]: 18.9%

O=C(/C=C\n1cnc(-c2cc(C(F)(F)F)cc(C(F)(F)F)c2)n1)NNc1cnccn1 [selinexor, Selinexor]
discontinuation because of AEs (unrelated and related) ([2]; most common reasons for discontinuation): 32.5%
Overall response rate (ORR) ([2]; oral selinexor 80 mg + dexamethasone 20 mg, days 1 and 3 weekly, mITT population (122 patients), IRC adjudicated): 26.2%
CBR (≥minimal response), clinical benefit rate [2, 4]: 39.3%
OS (Overall Survival) [2, 4]: 8.6 months
PFS (progression-free survival) [2, 4]: 3.7 months
median DOR (duration of response) [2, 4]: 4.4 months
partial responses [2, 5]: 19.7%
stringent complete responses [2, 5]: 1.6%
very good partial responses [2, 5]: 4.9%
Minimal response [2, 6]: 13.1%
progressive disease or disease not evaluable [2, 6]: 21.3%
stable disease [2, 6]: 39.3%
response of patients with relapse after CAR-T ([2]; selinexor 80 mg + dexamethasone 20 mg twice weekly, both (2) patients with prior CAR-T therapy): partial response
Median time to partial response or better ([2]; selinexor 80 mg + dexamethasone 20 mg twice weekly, range 1-14 weeks): 4.1 weeks
median OS in patients who achieved a partial or minimal response or better ([2]; selinexor 80 mg + dexamethasone 20 mg twice weekly, responder subgroup): 15.6 months
efficacy across subgroups ([2]; subgroups including patients with high-risk cytogenetics (53% of the patients)): consistent across subgroups
Overall response rate (ORR) [3]: 21%

daratumumab
ORR (quad-refractory myeloma): 21.2%
ORR (refractory MM): 36%
